Measurements: patent publication US10280218B2, “Antibodies binding to BMP4, and uses thereof” (ACADEMISCH MEDISCH CENTRUM, priority 2014, dated 2019)

T1: BMP2 (Homo sapiens, UniProt P12643)
T1 sequence (P12643 283-396): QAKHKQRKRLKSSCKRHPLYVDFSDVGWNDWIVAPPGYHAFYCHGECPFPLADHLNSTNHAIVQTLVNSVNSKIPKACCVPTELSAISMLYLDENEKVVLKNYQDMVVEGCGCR

T2: BMP5 (Homo sapiens, UniProt P22003)
T2 sequence (P22003 317-454): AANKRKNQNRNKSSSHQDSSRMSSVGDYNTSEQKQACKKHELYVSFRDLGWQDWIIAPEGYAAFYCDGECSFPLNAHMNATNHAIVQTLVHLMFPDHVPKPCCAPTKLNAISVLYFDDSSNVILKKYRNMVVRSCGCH


Experiments:
Test in all cases: BMP activity luciferase reporter assay (BRE-luciferase, ID1 promoter) in C2C12 cells
human BMP4 = type: cell-based, mouse; settings: LDN 0.5 μM, DMH1 0.2 μM; for specificity / selectivity across BMP2, 4, 5, 6, 7, 9, 10, 12: VHH 500 ng/ml
Method: (§1) One of the most studied BMP target genes is the Inhibitor of Differentiation 1 (ID1). This is an immediate early gene that is activated by binding of the phosphorylated SMADs to its promoter region (López-Rovira et al., 2002). Thus, we employed the BMP-responsive C2C12 cells, which are stably transfected with the BRE-luciferase vector containing the BMP-Responsive-Element (the mouse ID1 promoter) cloned into the pGL3 luciferase vector (Zilberberg 2007). […] C2C12 cells were treated with the different BMPs with or without our VHHs or human Noggin at a concentration of 5 μg/ml. Luciferase activity was measured after 16 hours incubation. Most of the transcriptional data is in concordance with the results obtained with the phosphorylation of SMAD1/5/8.
(§2) C2C12 cells were plated in 96-well plates at 5×10^3 cells/well and cells were allowed to attach overnight. 100 μl of DMEM with 0.1% BSA were added in each well. VHH antibodies and human Fc-Noggin at the indicated concentrations were added at the same time. Wells with unstimulated cells were added as controls. Cells were treated in triplicate with the BMPs at the indicated concentrations for 16 hours. Luciferase activity was measured by adding 100 μl of luciferase substrate solution from the Bright-Glo™ Luciferase Assay System (Promega Benelux, Leiden, The Netherlands). After 3 minutes of incubation, luciferase activity was measured with Synergy HT Multi-Mode Microplate Reader (Biotek, Winooski, Vt., United States). Luciferase values were normalized to background activity (activity of wells with no cells) and represented as ratio to the activity of BMP-stimulated cells.
(§3) To evaluate the extent of this increase in potency, the IC50 of the different VHHs were determined in a dose-dependent inhibition assay in C2C12 cells (FIG. 25). C2C12 cells were plated in 96-well plates at 5×10^3 cells/well and cells were allowed to attach overnight 100 μl of DMEM with 0.1% BSA were added in each well. VHH antibodies were added at the indicated concentrations at the same time as 5 ng/ml BMP4 (FIG. 25A-B, D) or 50 ng/ml of BMP2 (FIG. 25C,D). Luciferase activity was measured after 16 hours. Values are represented as ratio to the activity of BMP-stimulated cells. […] However, its effects were more striking for BMP2 rather than BMP4 inhibition. […] The IC50 values for BMP4 inhibition observed in our VHHs are considerably lower than those observed for anti-BMP4 commercially available from R&D (Katagiri et al 1994) and those described in WO_2008/030611.
(§4) C2C12 cells were cultured in 96-well plates at 5×10^3 cells/well. After overnight attachment cells were stimulated with 10 ng/ml hBMP4 (Cat No. 314-BP-020; R&D Systems), 50 ng/ml hBMP2 (Cat No. 355-BM-010; R&D Systems), 200 ng/ml hBMP5 (Cat No. 615-BMC-020; R&D Systems), 50 ng/ml hBMP6 (Cat No. 506-BP-020; R&D Systems), 200 ng/ml hBMP7 (Cat No. 354-BP-010; R&D Systems), 25 ng/ml hBMP9 (Cat No. 3209-BP-010; R&D Systems), 25 ng/ml hBMP10 (Cat No. 2926-BP-025; R&D Systems), 50 ng/ml hBMP12 (Cat No. 779-G7-010; R&D Systems) and with or without VHH antibodies: C4C4 and C8C8 at 500 ng/ml; natural antagonist: mNoggin (Cat No. 1967-NG-025; R&D Systems), hNoggin (Cat No. 6057-NG; R&D Systems) and mGremlin (cat#956-GR-050; R&D Systems) at 500 ng/ml; chemical antagonist: 0.5 μM LDN-193189 (Cat No. 11802; Cayman Chemical) and 0.2 μM DMH1 (Cat No. 57146; Selleckchem).
(§5) VHH efficacy was evaluated by stimulating cells with 10 ng/ml of hBMP4 and 50 ng/ml of hBMP2, with and without increase concentrations (from 0.1-10 μg/ml) of VHH and anti-BMP4 antibodies: clone 66119, clone 3H2, clone M912262, clone PA354-16.1.1, Clone EPR6211, and anti-BMP4 (ab39973). […] Unstimulated cells were used as controls and wells with no cells used to normalize the background activity. […]

BMP10 = type: cell-based, human; settings: 25 ng/ml hBMP10, 16 h; LDN 0.5 μM; DMH1 0.2 μM
Method: (§6) C2C12 cells were plated in 96-well plates when they reached confluency, cells were treated in triplicate with 25 ng/ml of BMP9, 50 ng/ml of BMP10 or 50 ng/ml of BMP12 (all from R&D Systems), for 16 hours. VHHs or Noggin were added at a concentration of 5 ug/ml. C2C12 cells or HEK293 were plated on 12-well plates and starved for 5 hours, before stimulation with 2 ng/ml of TGF-β (R&D Systems) or 100 ng/ml Activin-A (R&D Systems), respectively. VHHs at the indicated concentrations were added at the same time. After 1 hour cells were lysed, and protein isolation and SDS-PAGE separation were performed as described previously. For protein detection the following antibodies were used: antiphospho-SMAD2 at 1:1000 (Cell Signaling).
C2C12 cells were cultured in 96-well plates at 5×10^3 cells/well. […]

BMP9 = type: cell-based, mouse; settings: 25 ng/ml hBMP9, 16 h; LDN 0.5 μM; DMH1 0.2 μM
Method: as §6, §4

BMP2 = target: T1, BMP2; type: cell-based, mouse; settings: 50 ng/ml hBMP2, 16 h; VHH, Noggin, Gremlin 500 ng/ml; LDN 0.5 μM; DMH1 0.2 μM
Method: as §1, §2, §3, §4, §5

BMP5 = target: T2, BMP5; type: cell-based, mouse; design: purchased R&D Systems 615-BMC-020; settings: 200 ng/ml hBMP5, 16 h; VHH, Noggin, Gremlin 500 ng/ml; LDN 0.5 μM; DMH1 0.2 μM
Method: as §1
as §2, with “Cells were treated in triplicate with the BMPs at the indicated concentrations for 16 hours.” left out, “Luciferase values were normalized to background activity (activity of wells with no cells) and represented as ratio to the activity of BMP-stimulated cells.” left out

inhibition of BMP-2 signals, comparison of inhibitors (BMP2)	inhibition of BMP5 signals, comparison of inhibitors (BMP5)	Molecule	specificity / selectivity across BMP2, 4, 5, 6, 7, 9, 10, 12 (human BMP4)	inhibition of BMP-10-derived signals, comparison of inhibitors (BMP10)	inhibition of BMP-9-derived signals, comparison of inhibitors (BMP9)	inhibition of BMP4-derived signals, comparison of inhibitors (human BMP4; 10 ng/ml hBMP4, 16 h, VHH, Noggin, Gremlin 500 ng/ml)
–	–	CC(C)Oc1ccc(-c2cnc3c(-c4ccnc5ccccc45)cnn3c2)cc1 [DMH1]	even less selective than Noggin	shown to inhibit	shown to inhibit	–
–	–	c1ccc2c(-c3cnn4cc(-c5ccc(N6CCNCC6)cc5)cnc34)ccnc2c1 [LDN, LDN-193189]	even less selective than Noggin	shown to inhibit	shown to inhibit	–
greatly inhibit	greatly inhibit	Gremlin: natural BMP antagonist (R&D Systems) (protein) KKKGSQGAIPPPDKAQHNDSEQTQSPPQPGSRTRGRGQGRGTAMPGEEVLESSQEALHVTERKYLKRDWCKTQPLKQTIHEEGCNSRTIINRFCYGQCNSFYIPRHIRKEEGSFQSCSFCKPKKFTTMMVTLNCPELQPPTKKKRVTRVKQCRCISIDLD	–	–	–	greatly inhibit
